The values that follow come from publication PMC12476894, “Identification of α‑Azacyclic Acetamide-Based Inhibitors of P. falciparum Na^+ Pump (PfATP4) with Fast-Killing Asexual Blood-Stage Antimalarial Activity by Phenotypic Screening” (ACS Infectious Diseases, 2025).

≈ marks a conversion by molar mass, not a printed value.

Data set [1] deals with isolated Pf3D7 trophozoites, [Na+]cyt. The experiment in a line: Measurement of P. falciparum cytosolic Na+ concentration (SBFI). Type of data set: cell-based, Plasmodium falciparum. The following applies: 1 μM. The protocol:
Measurements were carried out in 96 well plates (excitation wavelengths: 340 and 380 nm; emission wavelength: 515 nm), as described previously. Fluorescence ratio values (340 nm/380 nm) were converted to [Na^+]cyt using a calibration procedure in which parasites were suspended in solutions of varying [Na^+] containing ionophores.

The test system of another data set is Dd2-B2 (PfATP4^WT). The data set can be described thus: Drug susceptibility assay for cross-resistance profiling (Fidock Lab), parental line. Type of data set: cell-based, Plasmodium falciparum. The settings on record: Plasmodium falciparum, DD2, 72 h, read-out: EC50, Dd2-B2.
Data set [2] concerns P. falciparum 3D7 parasites (Pf3D7). The experiment in a line: 72 h SYBR Green growth inhibition, ABS P. falciparum 3D7 (Phillips Lab). It counts as cell-based, Plasmodium falciparum. The following applies: Plasmodium falciparum, 3D7; 72 h SYBR Green assay; mean ± SEM (n).
Data set [3] has as its system Pf3D7 trophozoites, pHcyt (PfATP4 and other plasma membrane transporters). The experiment in a line: P. falciparum pH fingerprint assay. The following applies: 5 μM, compared with KAE609 50 nM.
The test system of another data set is Dd2^L350H (PfATP4^L350H). The data set can be described thus: Drug susceptibility assay for cross-resistance profiling (Fidock Lab), L350H. It counts as cell-based, Plasmodium falciparum. The following applies: Table 3 data set; for EC50: Plasmodium falciparum, DD2, 15-selected line.
Data set [4] deals with Pf3D7 trophozoite-stage parasites, cytosolic pH (pHcyt); cell-based assay for ATP4 inhibition. The experiment in a line: P. falciparum cytosolic dose response pH assay (BCECF, with concanamycin A). The settings on record: Plasmodium falciparum, read-out: Pf3D7 pH EC50.
Another data set has as its system PfD10 attB + yDHODH. The data set can be described thus: 72 h SYBR Green growth inhibition, strain expressing yeast DHODH. Type of data set: cell-based. The following applies: Plasmodium falciparum, read-out: PfD10 attB + yDHODH EC50, 72 h SYBR Green assay.
The nature of data set [5]: Human HepG2 cytotoxicity assay (CellTiter Glo). Type of data set: cell-based. The following applies: HepG2 cells.
The subject of a further data set is PfDd2 parasites. The experiment in a line: Resistance selection by drug pulses, time to recrudescence. It counts as cell-based, Plasmodium falciparum. The protocol: To confirm the MOA for the α-azacyclic acetamides against P. falciparum and to obtain potential information about whether or not they bind PfATP4 at an overlapping site with that of KAE609, we undertook resistance selections using PfDd2 parasites using the published cycling drug selection method. , α-Azacyclic acetamides 2 and 3 were chosen as representative examples of the pyrrole- and indole-based series, respectively. […] Additional cycles were performed at 20 × EC50, until resistant parasites were detected based on a fold change in EC50 compared to the parental clonal Dd2 line (Table S3). Resistant parasites were detected in the 2-selections in all 4 flasks after 4 pulses and for 3-selections in 3 flasks after 5 pulses. Clonal lines were generated from each flask, and one clone per flask was selected for WGS and EC50 determination (Tables S4 and S5). WGS analysis identified two single point mutations in PfATP4 that were not present in the original clonal Dd2 parasite line (Tables and S4). P412L was found in three of four flasks containing 2-selected resistance clones, and F917L was identified in all three flasks containing 3-selected clones and in the fourth flask containing 2-selected clones (Table S4). PfATP4 mutations identified by the WGS analysis in parasite lines were verified by PCR of the pfatp4 gene, followed by Sanger sequencing (Figures S5, S6 and Table S6). An additional protein coding gene (ribosomal protein S8e) was mutated in the 2-selections. However, this mutation was identified in only one of four sequenced clones and is therefore unlikely to be related to resistance to 2 (Figure S7). All three resistant clones derived from the 3-selections harbored an identical mutation in a gene (pfcpu) encoding a conserved protein of unknown function, which was absent in the parental line (Figure S8).
Resistant Dd2 parasites were selected using a high-pressure intermittent selection protocol using a previously described method. Selections were set up using 4 flasks per compound starting with approximately 3 × 10^9 parasites per flask (80 mL per flask, 4% hematocrit, 3% parasitemia at the beginning of each pulse, mostly ring-stage parasites via previous sorbitol synchronization. Pulse 1 and 2 (48 h) were conducted at 10xEC50, and subsequent pulses were conducted at 20xEC50. Parasites cleared within 48 h under these conditions. 3-Selections used a total of 4 pulses, while 2-selections required 5 pulses before resistant parasites emerged (Table S3). Culture media was replenished daily for a week after each pulse, then every 2 days with weekly replenishment of blood. Cultures were monitored by microscopy until recrudescence. Clonal parasites were obtained from each flask by limiting dilution and maintained in drug free RPMI-1640 media prior to being analyzed for EC50 shifts. Established clonal lines were aliquoted and stored at −80 °C after suspension in Glycerolyte 57 solution (Baxter Cat no 4A7831).

The nature of a further data set: physchem. The settings on record: kinetic from dmso stock.
Data set [6] has as its system P. falciparum NF54^luc parasites. The data set can be described thus: Luciferase reporter (LR) / BRRoK assay, PfNF54^luc. The settings on record: Plasmodium falciparum, NF54, Hec50; luciferase reporter, 6 h. Type of data set: cell-based, Plasmodium falciparum. For orientation: Reporter assays use an easily measured gene product as a stand-in for the process of interest.

For another data set, the system named is PfD10 attB. The experiment in a line: 72 h SYBR Green growth inhibition, PfD10 attB. It counts as cell-based. The following applies: Plasmodium falciparum; 72 h SYBR Green assay.

A word on the EC50: it is the midpoint of the concentration-response curve. As a reminder, the CC50 is the concentration at which the toxic effect on the cells reaches its halfway point. A low value points to greater toxicity to the cells. As a reminder, the solubility is the concentration that dissolves in the medium under given conditions. In the case of `Cc1ccnc(NC(=O)Cn2cccc2-c2nc(-c3ccccc3)cs2)c1` [compound 2, N-(4-methylpyridin-2-yl)-2-(2-(4-phenylthiazol-2-yl)-1H-pyrrol-1-yl)acetamide], the “increase in [Na+]cyt (in words)” value in data set [1] was “reduced response”. Moreover, the EC50 in the data set on Dd2-B2 (PfATP4^WT) was found to be 380 ± 31 nM; in [2] it was 830 ± 71 nM; in the data set on Dd2^L350H (PfATP4^L350H), 1600 ± 160 nM; in data set [4] it was 1600 ± 950 nM; in the data set with PfD10 attB + yDHODH, 990 nM; in [6], 1100 ± 90 nM. For the same compound, the EC50 in the data set on PfD10 attB came out at 1200 nM. For the same compound, the “pH fingerprint, +Glucose + CMA condition (in words)” value in [3] is listed as “maximal/near-maximal inhibition of PfATP4”. For the same compound, in the data set on Dd2^L350H (PfATP4^L350H), the “EC50 fold-change vs Dd2-B2, Dd2^L350H” value came out at 4.2 fold. The compound further showed a half-maximal cytotoxic concentration (CC50) at 96 h in data set [5] of more than 50000 nM. Besides, the “Time to Recrudescence” value amounted to 8 days with PfDd2 parasites (Pulse 1, 10×EC50, Flasks #1-4); 6 days in the data set on PfDd2 parasites (Pulse 2, 10×EC50, Flasks #1-4); 7 days with PfDd2 parasites (Pulse 3, 20×EC50, Flasks #1-4); 3 days in the data set with PfDd2 parasites (Pulse 4, 20×EC50, Flasks #1-4); 2 days in the data set on PfDd2 parasites (Pulse 5, 20×EC50, Flasks #1-4, after pulse). For the same compound, the solubility in the data set “physchem” (pH 2, simulated gastric fluid) was 99 µM (≈ 37.1 µg/mL); in the data set “physchem” (pH 6.5, aqueous buffer), 3.2 µM (≈ 1.2 µg/mL).
On to `Cc1nn(CCNC(=O)Cn2c(C)c(C#N)c3ccccc32)c(C)c1Cl` [compound 3, N-(2-(4-chloro-3,5-dimethyl-1H-pyrazol-1-yl)ethyl)-2-(3-cyano-2-methyl-1H-indol-1-yl)acetamide], for which the “increase in [Na+]cyt (in words)” value in data set [1] is on record as “reduced response”. Moreover, the EC50 in the data set on Dd2-B2 (PfATP4^WT) worked out at 540 ± 54 nM; in data set [2], 1100 ± 71 nM; in the data set on Dd2^L350H (PfATP4^L350H) it was 3400 ± 320 nM; in [4], 1500 ± 47 nM; with PfD10 attB + yDHODH, 930 nM; in data set [6], 1600 ± 71 nM. Also, the EC50 in the data set on PfD10 attB was 1300 nM. Moreover, the “pH fingerprint, +Glucose + CMA condition (in words)” value in data set [3] is reported as “submaximal inhibition”. Besides, in the data set on Dd2^L350H (PfATP4^L350H), the “EC50 fold-change vs Dd2-B2, Dd2^L350H” value was determined as 6.3 fold. The CC50 at 96 h in data set [5] was more than 50000 nM. For the same compound, the “Time to Recrudescence” value is 5 days with PfDd2 parasites (Pulse 1, 10×EC50, Flasks #1-4); 4 days in the data set with PfDd2 parasites (Pulse 2, 10×EC50, Flasks #1-4); 4 days with PfDd2 parasites (Pulse 3, 20×EC50, Flasks #1-4); 6 days with PfDd2 parasites (Pulse 4, 20×EC50, Flask #1); 2 days with PfDd2 parasites (Pulse 4, 20×EC50, Flasks 2 - 4). For the same compound, the solubility in the data set “physchem” (pH 2, simulated gastric fluid) is 25 µM (≈ 9.25 µg/mL); in “physchem” (pH 6.5, aqueous buffer), 25 µM (≈ 9.25 µg/mL).
